# Reference: publication PMC8943889, “Synthetic studies with the brevicidine and laterocidine lipopeptide antibiotics including analogues with enhanced properties and in vivo efficacy” (Chemical Science, 2022)
# Where two headings read alike, the source gives them in different places. Positions of bridges follow the written chain, without caps; N, C: chain ends. Non-standard residues stand in square brackets, D forms with d. Residues, ends and D or L forms follow the SMILES beside them. ξ: configuration not given here. *: point of attachment. Hexanoyl(4ξ-Me) = CCC(C)CCC(=O)*; dOrn = NCCC[C@@H](N)C(=O)O; Orn = NCCC[C@H](N)C(=O)O
# Assays:
# Gram-negative bacteria = test: MIC comparison across the bacterial panel of Table 1; format: cell-based; conditions: enantiomer versus natural product, strains of Table 1
# Experimental: (§1) Minimum inhibitory concentrations (MICs) were determined by broth microdilution according to CLSI guidelines in triplicate. Blood agar plates were inoculated with glycerol stocks of E. coli ATCC 25922, E. coli MCR-1 (clinical isolate from Utrecht Medical Centre, NL), E. coli EQAS MCR-2 (clinical isolate from Wageningen University and Research, NL), K. pneumoniae ATCC 11228, K. pneumoniae ATCC 13883, K. pneumonia 2048 (clnical isolate from Vrije Universiteit Amsterdam Medical Centre, NL), K. pneumonia JS-123 (clinical isolate from Utrecht Medical […]
# (clinical isolate from Rijksinstituut voor Volksgezondheid en Milieu, NL), A. baumannii MDR (clinical isolate from Vrije Universiteit Amsterdam Medical Centre, NL), P. aeruginosa ATCC 27853, P. aeruginosa PAO1, P. aeruginosa NRZ-03961 (Reference strain from Das Nationale Referenzzentrum für gramnegative Krankenhauserreger, DE), P. aeruginosa M-120 (clinical isolate from Leiden University Medical Centre, NL) and S. aureus USA300 (clinical isolate from Texas Children's Hospital, USA). E. coli 25922 MCR1 was grown on LB agar supplemented with kanamycin. The inoculated agar plates were then incubated for 16 h at 37°C . […] In parallel, the lipopeptide antibiotics to be assessed were serially diluted with Mueller-Hinton broth (MHB) in polypropylene 96-well plates (50 µL in each well). […]
# P. aeruginosa PAO1 = format: cell-based
# Experimental: as §1
# (§2) (clinical isolate from Rijksinstituut voor Volksgezondheid en Milieu, NL), A. baumannii MDR (clinical isolate from Vrije Universiteit Amsterdam Medical Centre, NL), P. aeruginosa ATCC 27853, P. aeruginosa PAO1, P. aeruginosa NRZ-03961 (Reference strain from Das Nationale Referenzzentrum für gramnegative Krankenhauserreger, DE), P. aeruginosa M-120 (clinical isolate from Leiden University Medical Centre, NL) and S. aureus USA300 (clinical isolate from Texas Children's Hospital, USA). E. coli 25922 MCR1 was grown on LB agar supplemented with kanamycin. The inoculated agar plates were then incubated for 16 h at 37°C . Individually grown colonies were subsequently used to inoculate 3 mL aliquots of TSB that were then incubated at 37°C with shaking at 220 rpm. In parallel, the lipopeptide antibiotics to be assessed were serially diluted with Mueller-Hinton broth (MHB) in polypropylene 96-well plates (50 µL in each well).
# (§3) Once the OD600 of the bacterial suspensions reached 0.5, the bacteria were diluted with MHB (final concentration 2 × 10^5 CFU mL−1) and added to the microplates containing the test compounds (50 µL to each well, final volume: 100 µL). The well-plates were sealed with an adhesive membrane and after 16 h of incubation at 37°C with shaking at 220 rpm the wells were visually inspected for bacterial growth. MIC values reported are based on three technical replicates and defined as the lowest concentration of the compound that prevented visible growth of bacteria. […]
# E. coli ATCC 25922 [1] = format: cell-based
# Experimental: as §1, §2, §3
# A. baumannii 2018-006 = format: cell-based
# Experimental: as §1, §2, §3
# S. aureus USA300 = format: cell-based
# Experimental: as §1, §2, §3
# K. pneumoniae 2048 = format: cell-based
# Experimental: as §1, §2, §3
# K. pneumoniae ATCC 13883 = format: cell-based
# Experimental: as §1, §2, §3
# K. pneumoniae JS-123 = format: cell-based
# Experimental: as §1, §2, §3
# K. pneumoniae ATCC 11228 = format: cell-based
# Experimental: as §1, §2, §3
# P. aeruginosa ATCC 27853 = format: cell-based
# Experimental: as §1, §2, §3
# P. aeruginosa NRZ-03961 = format: cell-based
# Experimental: as §1, §2, §3
# A. baumannii ATCC 17961 = format: cell-based
# Experimental: as §1, §2, §3
# A. baumannii ATCC 17978 = format: cell-based
# Experimental: as §1, §2, §3
# P. aeruginosa M-120 = format: cell-based
# Experimental: as §1, §2, §3
# E. coli EQAS MCR-2 = format: cell-based; conditions: Ec EQAS MCR-2; broth microdilution (CLSI), MHB, 16 h 37 °C, three technical replicates
# Experimental: as §1, §2, §3
# A. baumannii MDR = format: cell-based
# Experimental: as §1, §2, §3
# [2] = test system: E. coli MCR-1 (clinical isolate); format: cell-based
# Experimental: as §1, §2, §3
# E. coli ATCC 25922 MCR-1 = format: cell-based; conditions: Ec ATCC 25922 MCR-1; broth microdilution (CLSI), MHB, 16 h 37 °C, three technical replicates
# Experimental: as §1, §2, §3
# E. coli ATCC 25922 [3] = test: Neutropenic mouse thigh infection efficacy study; format: in vivo, mice (ICR); conditions: neutropenic mice, E. coli ATCC 25922 thigh infection, 20 mg kg^−1 SC q8h
# Experimental: In vivo tolerability and efficacy studies
# Ethical Issues. Animal experiments were performed under UK Home Office Licences P89653310 (tolerability and PK) and PA67E0BAA (thigh efficacy), with local ethical committee clearance.
# Animal Strain. Mice used in these studies were supplied by Charles River (Margate UK) and were specific pathogen free. The strain of mice used was ICR (also known as CD1 Mice) which is a well characterized outbred murine strain. Mice (male) were 11-15 g on receipt and were allowed to acclimatise for at least 7 days.
# Animal Housing. Mice were housed in sterilised individual ventilated cages exposing the mice at all times to HEPA filtered sterile air. Mice had free access to food and water and had aspen chip bedding (changed at least once weekly). The room temperature was 22°C +/ - 1°C, with a relative humidity of 60% and maximum background noise of 56 dB. Mice were exposed to 12 h light/dark […]
# Test compounds. Compound 6 was dissolved in water for injection in which it formed a clear […]
# colourless solution. […]
# Compound 6 was administered via subcutaneous administration route at 3 8-h […]
# The mice used in the tolerability study were naïve and were not immunosuppressed or infected.
# Efficacy study. The in vivo efficacy of compound 6 was assessed in a mouse thigh abscess model where both thighs of each mouse were infected with E. coli ATCC 25922
# Immunosuppression. […]
# Endpoints. One h and 20.5 (planned 25) h post-infection, the clinical condition of all animals was assessed prior to humane euthanasia using pentobarbitone overdose, and the thighs were removed and weighed. Thigh samples were homogenized in 3mL ice cold sterile PBS; the homogenates were quantitatively cultured onto CLED agar and incubated at 37°C for 18 - 24 h before colonies were […]
# Data analysis. The data from the culture burdens were analysed using appropriate non-parametric statistical models (Kruskal-Wallis using Conover-Inman to make all pairwise comparisons between groups) with StatsDirect software v. […]
molecule,measurement,setting,value
"CCC(C)CCC(=O)N[C@@H](CC(N)=O)C(=O)N[C@@H](Cc1ccc(O)cc1)C(=O)N[C@@H](Cc1c[nH]c2ccccc12)C(=O)N[C@@H](CCCN)C(=O)N[C@H](CCCN)C(=O)NCC(=O)N[C@@H](CCCN)C(=O)N[C@H](Cc1c[nH]c2ccccc12)C(=O)N[C@H]1C(=O)N[C@H]([C@H](C)CC)C(=O)NCC(=O)N[C@H](CO)C(=O)O[C@H]1C (single isomer, unassigned) [ent-Brev (ent-1), ent-brevicidine]",MIC values higher than the natural products,Gram-negative bacteria,8- to 32 fold
same,MIC,"P. aeruginosa PAO1; PAO1, 16 h",32 µg/mL
same,MIC,"E. coli ATCC 25922 [1]; ATCC 25922, 16 h",16 µg/mL
same,MIC,"A. baumannii 2018-006; 2018-006, 16 h",8 to 16 µg/mL
same,MIC,"S. aureus USA300; USA300, 16 h",>64 µg/mL
same,MIC,"K. pneumoniae 2048; 2048, 16 h",32 µg/mL
same,MIC,"K. pneumoniae ATCC 13883; ATCC 13883, 16 h",32 µg/mL
same,MIC,"K. pneumoniae JS-123; JS-123, 16 h",8 µg/mL
same,MIC,"K. pneumoniae ATCC 11228; ATCC 11228, 16 h",32 µg/mL
same,MIC,"P. aeruginosa ATCC 27853; ATCC 27853, 16 h",16 µg/mL
same,MIC,"P. aeruginosa NRZ-03961; NRZ-03961, 16 h",32 µg/mL
same,MIC,"A. baumannii ATCC 17961; ATCC 17961, 16 h",32 µg/mL
same,MIC,"A. baumannii ATCC 17978; ATCC 17978, 16 h",16 to 32 µg/mL
same,MIC,"P. aeruginosa M-120; M-120, 16 h",16 µg/mL
"CCC(C)CCC(=O)N[C@H](CC(N)=O)C(=O)N[C@H](Cc1ccc(O)cc1)C(=O)N[C@H](Cc1c[nH]c2ccccc12)C(=O)N[C@H](CCCN)C(=O)N[C@@H](CCCN)C(=O)NCC(=O)N[C@H](CCCN)C(=O)N[C@@H](Cc1c[nH]c2ccccc12)C(=O)N[C@H]1COC(=O)[C@H](CO)NC(=O)CNC(=O)[C@H]([C@@H](C)CC)NC1=O (stereo partly drawn) [Ser9-Brev (3), Ser9-Brevicidine] ({Hexanoyl(4ξ-Me)}-[dN][dY][dW][dOrn][Orn]G[dOrn]WSIGS; ester 9-C)",MIC,E. coli EQAS MCR-2,4 to 8 µg/mL
same,MIC,"P. aeruginosa PAO1; PAO1, 16 h",2 to 4 µg/mL
same,MIC,"A. baumannii MDR; MDR, 16 h",1 to 2 µg/mL
same,MIC,"E. coli ATCC 25922 [1]; ATCC 25922, 16 h",4 µg/mL
same,MIC,"A. baumannii 2018-006; 2018-006, 16 h",2 µg/mL
same,MIC,"S. aureus USA300; USA300, 16 h",>64 µg/mL
same,MIC,"[2]; MCR-1 (clinical isolate, 16 h)",2 µg/mL
same,MIC,"K. pneumoniae 2048; 2048, 16 h",4 µg/mL
same,MIC,"K. pneumoniae ATCC 13883; ATCC 13883, 16 h",2 µg/mL
same,MIC,"K. pneumoniae JS-123; JS-123, 16 h",2 µg/mL
same,MIC,E. coli ATCC 25922 MCR-1,4 µg/mL
same,MIC,"K. pneumoniae ATCC 11228; ATCC 11228, 16 h",2 µg/mL
same,MIC,"P. aeruginosa ATCC 27853; ATCC 27853, 16 h",1 µg/mL
same,MIC,"P. aeruginosa NRZ-03961; NRZ-03961, 16 h",4 µg/mL
same,MIC,"A. baumannii ATCC 17961; ATCC 17961, 16 h",0.5 to 1 µg/mL
same,MIC,"A. baumannii ATCC 17978; ATCC 17978, 16 h",2 µg/mL
same,MIC,"P. aeruginosa M-120; M-120, 16 h",2 µg/mL
"polymyxin B [PolyB, reference compound]","antibacterial effect in thigh infection, compared with Dap9-Lat (6) at 40 mg kg^−1",E. coli ATCC 25922 [3],comparable
same,MIC,E. coli EQAS MCR-2,4 µg/mL
same,MIC,"P. aeruginosa PAO1; Pa PAO1, broth microdilution (CLSI), MHB, 16 h 37 °C, three technical replicates",0.25 to 0.5 µg/mL
same,MIC,"A. baumannii MDR; Ab MDR, broth microdilution (CLSI), MHB, 16 h 37 °C, three technical replicates",<0.25 µg/mL
same,MIC,"E. coli ATCC 25922 [1]; Ec ATCC 25922, broth microdilution (CLSI), MHB, 2 × 10^5 CFU/mL, 16 h 37 °C, visual read-out, three technical replicates",0.5 µg/mL
same,MIC,"A. baumannii 2018-006; Ab 2018-006, broth microdilution (CLSI), MHB, 16 h 37 °C, three technical replicates",<0.25 µg/mL
same,MIC,"S. aureus USA300; Sa USA300, broth microdilution (CLSI), MHB, 16 h 37 °C, three technical replicates",64 µg/mL
same,MIC,"[2]; Ec MCR-1, broth microdilution (CLSI), MHB, 16 h 37 °C, three technical replicates",2 to 4 µg/mL
same,MIC,"K. pneumoniae 2048; Kp 2048, broth microdilution (CLSI), MHB, 16 h 37 °C, three technical replicates",0.5 to 1 µg/mL
same,MIC,"K. pneumoniae ATCC 13883; Kp ATCC 13883, broth microdilution (CLSI), MHB, 16 h 37 °C, three technical replicates",0.25 µg/mL
same,MIC,"K. pneumoniae JS-123; Kp JS-123, broth microdilution (CLSI), MHB, 16 h 37 °C, three technical replicates",<0.25 µg/mL
same,MIC,"K. pneumoniae ATCC 11228; Kp ATCC 11228, broth microdilution (CLSI), MHB, 16 h 37 °C, three technical replicates",<0.25 µg/mL
same,MIC,"P. aeruginosa ATCC 27853; Pa ATCC 27853, broth microdilution (CLSI), MHB, 16 h 37 °C, three technical replicates",<0.25 µg/mL
same,MIC,"P. aeruginosa NRZ-03961; Pa NRZ-03961, broth microdilution (CLSI), MHB, 16 h 37 °C, three technical replicates",0.25 to 0.5 µg/mL
same,MIC,"A. baumannii ATCC 17961; Ab ATCC 17961, broth microdilution (CLSI), MHB, 16 h 37 °C, three technical replicates",<0.25 µg/mL
same,MIC,"A. baumannii ATCC 17978; Ab ATCC 17978, broth microdilution (CLSI), MHB, 16 h 37 °C, three technical replicates",<0.25 µg/mL
same,MIC,"P. aeruginosa M-120; Pa M-120, broth microdilution (CLSI), MHB, 16 h 37 °C, three technical replicates",<0.25 µg/mL
